# Assay results published in US4783402A, “Production of primary or secondary alcohol derivatives of phospholipids by the enzymatic technique” (Meito Sangyo Kabushiki Kaisha, priority 1983, dated 1988).
# Experiments:
# [1] = tested on: phospholipase DM derived from the Nocardiopsis strain (Nocardiopsis sp. No. 779, FERM-P No. 6133; BP 512); assay: Influences of various substances on enzyme activity (choline oxidase method, egg-yolk lecithin substrate); assay type: biochemical; details: substance at 1 mM in the enzyme reaction system, added instead of the aqueous calcium chloride solution; lecithin emulsion, Tris-HCl pH 7.2, 37° C., 20 minutes
# Protocol: (§1) The enzyme activity of the phospholipase DM utilized in the process of this invention is determined by measuring the amount of a base which is formed when the phospholipase DM acts on the substrate glycerophospholipid to decompose the ester linkage between phosphoric acid and the nitrogen-containing base. Unless otherwise indicated, the activity of phospholipase DM is measured by the choline oxidase method to be described hereinafter.
# (§2) Distilled water (0.15 ml), 0.1 ml of 0.2M Tris-HCl buffer (pH 7.2) and 0.05 ml of 0.1M aqueous calcium chloride solution are mixed with 0.1 ml of 1% emulsion of purified lecithin from egg yolk (an emulsion of 0.1 g of lecithin, 1 ml of ethyl ether and 10 ml of distilled water obtained by ultrasonication). To the mixture is added 0.1 ml of an enzyme solution and reacted at 37° C. for 20 minutes. Then, 0.2 ml of 1M Tris-HCl buffer (pH 8.0) containing 50 mM disodium ethylenediamine tetraacetate, and immediately then, the mixture is boiled for 5 minutes, followed by completely stopping the reaction. Then, 4 ml of a solution obtained by dissolving a choline color-forming agent contained in a kit of a reagent for choline esterase measurement (produced by Nippon Shoji Co., Ltd.) in a color dissolving liquid is added, and reacted at 37° C. for 20 minutes. Then, the absorbance of the reaction solution at 500 nm is measured.
# (§3) As a control, the absorbance of the product obtained by the same procedure as above except that an enzyme solution previously deactivated by heat is used.
# (§4) The activity of the enzyme to liberate 1 micromole of choline per minute is defined as one unit.
# (§5) In the method of measuring the activity of the enzyme described hereinabove, 0.05 ml of an aqueous solution of each of various substances is added instead of the aqueous calcium chloride solution so that its concentration in the enzyme reaction system becomes 1 mM. The activity of the enzyme is then measured. The activity of the enzyme at the time of adding water is taken as 100, and the relative activity of the enzyme is determined.
# [2] = tested on: phospholipase DM derived from the Actinomadura strain (Actinomadura sp. No. 362, FERM-P No. 6132; BP 511); assay: as above; assay type: biochemical; details: substance at 1 mM in the enzyme reaction system, added instead of the aqueous calcium chloride solution; lecithin emulsion, Tris-HCl pH 7.2, 37° C., 20 minutes
# Protocol: as §1, §2, §3, §4, §5
SMILES,"influence on the activity of the enzyme (relative activity, activity at the time of adding water taken as 100) [1]","influence on the activity of the enzyme (relative activity, activity at the time of adding water taken as 100) [2]"
CCO [ethanol],activating action,activating action
CC(C)O [isopropanol],activating action,activating action
CC(C)(C)O [t-butanol],activating action,activating action
